In patent US20060247233A1, “Thiazoles inhibitors of the alk-5 receptor” (priority 2003, published 2006):

Tests used:
[1] = tested on: HepG2 cells stably transfected with the PAI-1 promoter linked to a luciferase (firefly) reporter gene, exposed to TGF-β; experiment: Assay 1 (Cellular Transcriptional Assay): TGF-β induced PAI-1 promoter luciferase reporter; conditions: for IC50: Homo sapiens, HepG2, read-out: TGF-β cellular activity (IC50)
Method: The assay was performed in HepG2 cells stably transfected with the PAI-1 promoter (known to be a strong TGF-β responsive promoter) linked to a luciferase (firefly) reporter gene. The compounds were selected on their ability to inhibit luciferase activity in cells exposed to TGF-β. In addition, cells were transfected with a second luciferase (Renilla) gene which was not driven by a TGF-β responsive promoter and was used as a toxicity control.
96 well microplates were seeded, using a multidrop apparatus, with the stably transfected cell line at a concentration of 35000 cells per well in 200 μl of serum-containing medium. These plates were placed, in a cell incubator.
18 to 24 hours later (Day 2), cell-incubation procedure was launched: Cells were incubated with TGF-β and a candidate compound at concentrations in the range 50 nM to 10 μM (final concentration of DMSO 1%). The final concentration of TGF-β (rhTGFβ-1) used in the test was 1 ng/mL. […] The final volume of the test reaction was 150 μl. Each well contained only one candidate compound and its effect on the PAI-1 promoter was monitored.
Columns 11 and 12 were employed as controls. Column 11 contained 8 wells in which the cells were incubated in the presence of TGF-β, without a candidate compound. Column 11 was used to determine the ‘reference TGF-β induced firefly luciferase value’ against which values measured in the test wells (to quantify inhibitory activity) were compared. In wells A12 to D12, cells were grown in medium without TGF-β. […]
12 to 18 hours later (day 3), the luciferase quantification procedure was launched. […] Following agitation (15 to 30 mins), luciferase activities of the plates were read in a dual-injector luminometer (BMG lumistar). For this purpose, 50 μl of luciferase assay reagent and 50 μl of ‘Stop & Glo’ buffer were injected sequentially to quantify the activities of both luciferases. […] For each of the compounds tested, a concentration response curve was constructed from which an IC50 value was determined graphically.

[2] = molecular target: T1, recombinant GST-ALK5 (residues 198-503) (Homo sapiens, UniProt P36897); experiment: Assay 2 (Alk5 Fluorescence Polarization Assay); type: binding; conditions: rhodamine green-labelled ligand 1 nM, ALK5 10 nM, read-out: ALK5 receptor modulator activity (IC50)
T1 construct: assays using recombinant GST-ALK5 (residues 198-503); GST (N)
T1 sequence (P36897 198-503): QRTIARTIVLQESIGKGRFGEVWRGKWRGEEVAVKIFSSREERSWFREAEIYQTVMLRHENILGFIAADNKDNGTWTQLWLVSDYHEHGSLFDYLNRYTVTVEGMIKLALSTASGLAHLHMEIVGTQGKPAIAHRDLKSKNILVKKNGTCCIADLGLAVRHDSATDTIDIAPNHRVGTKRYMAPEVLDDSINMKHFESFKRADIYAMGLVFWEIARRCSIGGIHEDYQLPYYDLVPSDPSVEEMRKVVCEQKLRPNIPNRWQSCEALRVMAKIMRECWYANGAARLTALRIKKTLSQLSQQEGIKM
Method: Assay 2 (Alk5 Fluorescence Polarization Assay)
Kinase inhibitor compounds conjugated to fluorophores, can be used as fluorescent ligands to monitor ATP competitive binding of other compounds to a given kinase. The increase in depolarization of plane polarized light, caused by release of the bound ligand into solution, is measured as a polarization/anisotropy value. This protocol details the use of a rhodamine green-labelled ligand for assays using recombinant GST-ALK5 (residues 198-503).
Assay buffer components: 62.5 mM Hepes pH 7.5 (Sigma H-4034), 1 mM DTT (Sigma D-0632), 12.5 mM MgCl2 (Sigma M-9272), 1.25 mM CHAPS (Sigma C-3023). […]
ALK5 was added to assay buffer containing the above components and 1 nM of the rhodamine green-labelled ligand so that the final ALK5 concentration was 10 nM based on active site titration of the enzyme. […] The plates were read immediately on a UL Acquest fluorescence reader (Molecular Devices, serial number AQ1048) with excitation, emission, and dichroic filters of 485 nm, 530 nm, and 505 nm, respectively. The fluorescence polarization for each well was calculated by the Acquest reader and then imported into curve fitting software for construction of concentration response curves. The normalized response was determined relative to the high controls (1 μl DMSO in column 12, rows […]) and the low controls (1 μl of control compound in column 12, rows E-H). […]

Structure (SMILES) | firefly and renilla luciferase activities, relative to TGF-β only wells ([1]; 500 μM, in the presence of TGF-β, toxicity control) | IC50 [2] [nM] | melting point [°C] | IC50 [1] [nM]
O=C1C=CCC1 [CPO, Cyclopentenone, reference compound] | around 50% | – | – | –
Cc1cccc(-c2nc(N)sc2-c2ccc3ncn(C)c3c2)n1 [Example 1, 5-(1-methyl-benzimidazol-6-yl)-4-(6-methylpyridin-2-yl)-1,3-thiazol-2-amine] | – | 16 | 244 to 246 | 11
Cc1cccc(-c2sc(N)nc2-c2ccc3ncoc3c2)n1 [Example 2, 4-(benzoxazol-6-yl)-5-(6-methyl-pyridin-2-yl)-1,3-thiazol-2-amine] | – | – | 188 to 190 | –
CCn1cnc2ccc(-c3sc(N)nc3-c3cccc(C)n3)cc21 [Example 3, 5-(1-ethyl-benzimidazol-6-yl)-4-(6-methylpyridin-2-yl)-1,3-thiazol-2-amine] | – | – | 218 to 220 | –
COCCn1cnc2ccc(-c3sc(N)nc3-c3cccc(C)n3)cc21 [Example 4, 5-(1-(2-methoxyethyl)-benzimidazol-6-yl)-4-(6-methylpyridin-2-yl)-1,3-thiazol-2-amine] | – | – | 200 to 202 | –
Cc1cccc(-c2nc(N)sc2-c2ccc3c(c2)N(C)C(=O)CO3)n1 [Example 5, 5-[4-methyl-4H-benzo[1,4]oxazin-3-one-6-yl]-4-(6-methylpyridin-2-yl)-1,3-thiazol-2-amine] | – | – | 240 to 242 | –
CCN1C(=O)COc2ccc(-c3sc(N)nc3-c3cccc(C)n3)cc21 [Example 6, 5-[4-ethyl-4H-benzo[1,4]oxazin-3-one-6-yl]-4-(6-methylpyridin-2-yl)-1,3-thiazol-2-amine] | – | 27 | 228 to 230 | 104
Cc1cccc(-c2sc(N)nc2-c2ccc3c(c2)OCO3)n1 [Example 7, 4-(Benzo[1,3]dioxol-5-yl)-5-(6-methylpyridin-2-yl)-1,3-thiazol-2-amine] | – | – | 170 to 172 | –
Nc1nc(-c2ccc3c(c2)OCCO3)c(-c2ccccn2)s1 [Example 8, 4-(Benzodioxan-6-yl)-5-(Pyridin-2-yl)-1,3-thiazol-2-amine] | – | – | 214 | –
Nc1nc(-c2ccc3ncccc3c2)c(-c2ccccn2)s1 [Example 9, 4-(Quinolin-6-yl)-5-(pyridin-2-yl)-1,3-thiazol-2-amine] | – | – | 226 | –
